Entries after “also recorded” stand apart in the source; their conditions may differ.
Tests used:
C. propionicum = experiment: Fluorescence signal of bacterial cell lysates grown with 3-butynoic acid; type: cell-based, Clostridium propionicum; conditions: media with 5 and 10 mM 3-butynoic acid, lysates treated with compound 4
Experimental: The cell lysates were treated with […] of diaryltetrazole compound 4 for fluorescence detection. […] 3-Butynoic acid, an acyl CoA dehydrogenase inhibitor, may be capable of promoting accumulation of acrylyl CoA in cells. In C. propionicum, acrylyl CoA is normally converted to propionyl CoA. However, in the presence of 3-butynoic acid, this reaction is inhibited. […] C. propionicum naturally produces acrylic acid but E. Coli. may not naturally produce acrylic acid.

[1] = Fluorescence assay of the photoactivated reaction between diaryltetrazole and acrylic acid; conditions: for λem,max / λex,max: 100 μM compound reacted with acrylic acid; for λem,max / λex,max / Fold increase in fluorescence 10 mM / Fold increase in fluorescence 100 μM: photoirradiation 1 minute at 302 nm; for Fold increase in fluorescence 10 mM / Fold increase in fluorescence 100 μM: 100 μM compound; for Fold increase in fluorescence 10 mM: 10 mM acrylic acid; for fluorescence increases above the background: reacted with acrylic acid, summary of Table 1; for Fold increase in fluorescence 100 μM / pH of signal detection peak: 100 μM acrylic acid
Experimental: A solution containing the diaryltetrazole (0.022 mmol) and acrylic acid (0.02 to 0.050 mmol) was irradiated with a hand-held 302-nm UV lamp for 1 minute. Experiments were performed in a black 96-well plate with a total reaction volume of 100 The maximum excitation wavelengths indicated in Table 1 were used for each of the scans. The fluorescence emission spectrums of the reaction are shown in FIG. 1a to if using 10 μM of acrylic acid. The spectra for control experiments where either of the reactants was omitted have also been depicted in each of FIGS. 1a to 1f.
As mentioned earlier, the lower limit of detection of acrylic acid for compound 4 was 500 nM of acrylic acid upon a 1 minute photoactivation period with UV light at 302 nm. […]
As described above, compound 4 was used in further experiments to detect acrylic acid. The reaction between compound 4 and acrylic acid was carried out in water with a photoactivation time of 1 minute at 302 nm. Using 100 μM of 4, acrylic acid concentrations from 1 μM to 100 μM were readily detectable with a fluorescence microplate reader (see FIG. 3 and example 9).

C. propionicum cells = experiment: In vivo detection of acrylic acid in C. propionicum cells by fluorescence microscopy and lysate fluorescence; type: cell-based, Clostridium propionicum; conditions: 100 μM compound 4, 30 min, UV 302 nm 1 minute, with or without 100 μM acrylic acid added
Experimental: To test the diaryltetrazole sensor for in vivo production of acrylic acid, we applied compound 4 to C. propionicum cells. C. propionicum cells were grown to late log phase (OD600˜1.0) in an anoxia chamber and treated with 100 μM of compound 4. After incubating at 37° C. for 30 min in the dark, cells were washed, pelleted, suspended in PBS buffer and mounted on a slide. Cells were exposed to 302 nm UV light for 1 minute and imaged under a fluorescence microscope (using DAPI filters) after about 2 hours of recovery at room temperature. Control cells include cells treated with acrylic acid and compound 4 to observe positive fluorescence; untreated cells and cells treated with acrylic acid alone and without UV treatment. […] This indicates the production of acrylic acid intermediates in these cells and the diaryltetrazole probe is capable of detecting them.

[2] = Fluorescence assay of the photoactivated reaction between diaryltetrazole and acrylamide
Experimental: To substantiate the above, the reaction between compound 4 and acrylic acid (AA), and the reaction between compound 4 and acrylamide (a derivative), were carried out in buffers from pH 1 to pH 13. […] Deprotonation of the chromophore appears to result in higher fluorescence intensity of the pyrazoline product.
100 μM acrylic acid and 2 different grades of acrylamides, particularly gel electrophoresis acrylamide (GE) and molecular biology acrylamide (MB), were tested with 100 μM of compound 4 over the entire pH range. The reaction between compound 4 and acrylic acid/acrylamide was carried out in a phosphate buffer (having different pH as indicated) in 10% DMSO with a photoactivation time of 1 minute at 302 nm. Fluorescence was measured using a fluorescence microplate reader. […] Clearly, the detection method of the present disclosure is capable of detecting acrylate derivatives.
Compound 4 was also used to detect acrylamide in vitro. The reaction between compound 4 and acrylamide was carried out in phosphate buffer at pH 9.0 with 10% DMSO with a photoactivation time of 1 minute at 302 nm. Using 100 μM of compound 4, acrylamide concentrations from 1 μM to 100 μM were readily detectable with a fluorescence microplate reader as shown in FIG. 18.
10% (v/v) of different oils in a phosphate buffer of pH 9.0 containing 1% Tween-20 were spiked in with 10 mM Acrylamide (gel electrophoresis grade). Controls were uncontaminated. Reactions of these mixtures were set up with 100 μM of compound 4 with a photoactivation time of 1 minute at 302 nm. Fluorescence was measured using a fluorescence microplate reader.
100 μM of acrylic acid and acrylamide (gel electrophoresis grade) were tested with 100 μM of compound 4 over a pH range of 7 to 13. The reaction between compound 4 and acrylic acid/acrylamide was carried out in a phosphate buffer (having different indicated pH) in 10% DMSO with a photoactivation time of 1 minute at 302 nm. Fluorescence was measured using a fluorescence microplate reader.

E. coli cells = experiment: In vivo detection of acrylic acid in E. coli cells by fluorescence microscopy; type: cell-based; conditions: 100 μM acrylic acid 10 minutes, 100 μM compound 4 30 min, UV 302 nm 1 minute
Experimental: The use of compound 4 as an acrylic acid sensor in vivo was tested in this example. E. coli cells were grown to late log phase (OD600˜1.0) and treated with 100 μM acrylic acid for 10 minutes at 37° C. Upon washing, cells were treated with 100 μM of compound 4 and incubated at 37° C. for 30 min in the dark. The cells were washed, pelleted, suspended in 1×PBS and mounted on a slide. They were then exposed to UV light at 302 nm for 1 minute and imaged under a fluorescence microscope (using DAPI filters) after about 2 hours of recovery at room temperature. Control cells include untreated cells; cells treated with either acrylic acid or compound 4 alone and without UV treatment.

[3] = Reaction monitoring of photoactivated cycloaddition using HPLC and fluorescence
Experimental: 10 mM of compound 4 was dissolved in dichloromethane and methanol (1:1). A separate solution of 10 mM of acrylic acid was dissolved in methanol. 10 μL of 10 mM of compound 4 and 10 μL of 10 mM of acrylic acid were then dissolved in 80 μL of methanol. After vigorous stirring, the mixture was irradiated with a 302 nm UV lamp for 0 seconds, 15 seconds, 30 seconds, 45 seconds, 60 seconds, 90 seconds and 120 seconds, respectively. An aliquot (10 μL) of reaction solution from each sample was withdrawn and immediately injected in the HPLC column. Compound 4 (denoted as A) and the pyrazoline product 4P (denoted as B) in each sample was monitored by UV absorbance at 254 nm and 370 nm. A linear gradient of 5 to 90% MeOH was applied after 3 minutes for 10 minutes, which is then kept constant for 10 minutes before a 7 minutes linear declining gradient of 90 to 5% MeOH. Compound 4 and product 4P were eluted at about 13.4 minutes and 12.4 minutes respectively.
The kinetic reaction studies involving diaryltetrazole compound 4 and acrylic acid were carried out by monitoring with HPLC from 0 to 120 seconds as described above.
Fluorescence turn on of the reaction mixture occurred after 15 seconds. The left vial to the right vial are labelled as no UV activation, 15 seconds, 30 seconds, 45 seconds, 60 seconds, 90 seconds, 120 seconds of UV activation, respectively. […]

SMILES	λem,max [1] [nm]	λex,max [1] [nm]	Fold increase in fluorescence 10 mM [1]	fluorescence increases above the background [1]	Fold increase in fluorescence 100 μM [1]	other results
C#CCC(=O)O [3-butynoic acid, 3-Butynoic acid]						fluorescence signal of cell lysates (C. propionicum): fluorescence signal is higher
O=C(O)c1ccc(-c2nnn(-c3ccccc3)n2)cc1 [Compound 4]	520	380	5.15		132	pH of signal detection peak ([1]; 100 μM compound 4, entire pH range, phosphate buffer 10% DMSO (FIG. 17)): 11.0 pH; pH of signal detection peak ([1]; 100 μM compound 4, pH range 7 to 13 (FIG. 21)): 10.0 pH; fluorescence detection of acrylic acid in LB media and minimum media ([1]; 100 μM compound 4, 1 min photoactivation): readily detected before the completion of photoactivation; lower limit of detection of acrylic acid ([1]; 1 minute photoactivation with UV light at 302 nm): 500 nM; Fold increase in fluorescence ([1]; Table 2: 100 μM compound 4, 500 nM acrylic acid): 1.12; Fold increase in fluorescence ([1]; Table 2: 100 μM compound 4, 1 μM acrylic acid): 1.58; Fold increase in fluorescence ([1]; Table 2: 100 μM compound 4, 10 μM acrylic acid): 17; Fold increase in fluorescence ([1]; Table 2: 100 μM compound 4, 100 μM acrylic acid): 132; fluorescence of the probe alone (control experiments) ([1]; buffers pH 1 to pH 13, without analyte): not fluorescent at all pH tested; fluorescence of cells (C. propionicum cells): cells were fluorescent; pH of fluorescent peak ([2]; 100 μM acrylamide (gel electrophoresis grade), 100 μM compound 4, pH range 7 to 13 (FIG. 21)): 9.0 pH; pH of signal detection peak ([2]; 100 μM acrylamide, 100 μM compound 4, entire pH range, phosphate buffer 10% DMSO (FIG. 17)): 9.0 pH; detection of acrylamide in a complex organic/detergent mixture ([2]; 10% (v/v) oils, phosphate buffer pH 9.0, 1% Tween-20, 10 mM acrylamide, 100 μM compound 4): able to detect acrylamide in a complex organic/detergent mixture; fluorescence of bacterial cells (E. coli cells): only fluorescent in the presence of both acrylic acid and compound 4; time to completion of the reaction with acrylic acid ([3]; HPLC monitoring, 302 nm UV, methanol): ≤ 90 s; time to fluorescence turn on of the reaction mixture ([3]; compound 4 and acrylic acid in methanol, UV activation): ≤ 15 s
Cc1ccc(-c2nnn(-c3ccc(N)cc3)n2)cc1 [Compound 5]						fluorescence / reactivity towards acrylic acid ([1]; reaction with acrylic acid, photoactivation): No fluorescence; also recorded: unreactive towards acrylic acid, forming little or no fluorescent product
COc1ccc(-n2nnc(-c3ccc(C)cc3)n2)cc1 [Compound 6]		371	3.87	around 3 fold		

More lines, main results first:

λem,max [1] [nm]	λex,max [1] [nm]	SMILES	Fold increase in fluorescence 10 mM [1]	fluorescence increases above the background [1]	Fold increase in fluorescence 100 μM [1]	other results
482	395	COC(=O)c1ccc(-c2nnn(-c3ccccc3)n2)cc1 [Compound 1]	3.23	around 3 fold		
487	392	COC(=O)c1ccc(-c2nnn(-c3ccc(F)cc3)n2)cc1 [Compound 2]	3.38	around 3 fold	1.12	
482	380	COC(=O)c1ccc(-c2nnn(-c3ccc(F)cc3F)n2)cc1 [Compound 3]	3.17	around 3 fold	1.12	
	368	COc1ccc(-n2nnc(-c3ccccc3)n2)cc1 [Compound 7]	3.38	around 3 fold	1.43	

From US20170121752A1, “DETECTION OF ACRYLIC ACID” (AGENCY FOR SCIENCE, TECHNOLOGY AND RESEARCH, priority 2014, published 2017)
